In one assay the target is T1, recombinant DGKα (Rattus norvegicus, UniProt P51556).
T1 construct: expressed in transfected cells; host or cells: HEK293T (SILAC HEK293T for LC-MS)
Nature of the assay: Gel-based ATP acyl phosphate chemical proteomic assay. It is filed as binding. The note with it: compounds 100 μM (ATP 1 mM; RF001 at indicated concentrations), 30 min; probe 10 μM. Here is the method: Cell pellets were resuspended in kinase buffer (Dulbecco's PBS (DPBS, Hyclone), 20 mM MgCl2, EDTA-free protease inhibitors (Pierce)) and then lysed by sonication (3×1 sec pulse, 20% amplitude). The cell lysates were then subjected to centrifugation (100,000×g, 45 min at 4° C.) to isolate the cytosolic fraction in the supernatant and the membrane fraction as a pellet. The membrane pellet was resuspended in kinase buffer by sonication. […] The only exception was experiments involving DGKE; recombinant DGKE protein was most prominently expressed in the membrane fraction and so this fraction was utilized to study DGKE enzyme (see FIG. 8). Protein concentrations were measured using the Bio-Rad DC protein assay. Samples were stored at −80° C. until use.
Proteome concentration was adjusted to 2 mg/mL in kinase buffer. Proteomes were first pre-treated with compound (0.6 μL, 50× stock in DMSO) mixed with gentle flicking, and incubated for 30 min at 25° C. in a microfuge tube (30 μL reaction volume). […] Reactions were then quenched with 10 AL of 4×SDS-PAGE loading buffer. Protein samples (15 μL) were loaded onto 4-20% TGX Stain-Free Protein Midi Gel and resolved by SDS-PAGE at 150V for 55 min. Proteins were then transferred to a nitrocellulose blot by Bio-Rad Trans-Blot Turbo Transfer System (25V. 10 min) to enhance sensitivity. The nitrocellulose blot was then incubated in blocking solution (30 mL, 3% BSA in TBS-T) for 1 h at 25° C. with gentle shaking. The blot was then transferred immediately to antibody solution (30 mL, 5% BSA in ddH2O with 0.1% Tween20 and 1:3000 Streptavidin DyLight 550) and incubated for 2 h at 25° C. with gentle shaking. The blot was then rinsed 5 times for 5 min in TBS-T. and then transferred into ddH2O. The blot was then imaged by in-blot fluorescence scanning on a ChemiDoc MP Imaging System. Fluorescence intensity signals were normalized to total lane protein using the Bio-rad Stain Free imaging (Posch et al., 2013).
The percentage of enzyme activity remaining was determined by comparing integrated band intensities or luminescence of inhibitor—with DMSO-treated samples for gel-based chemical proteomic or ADP-glo assays, respectively. For both chemical proteomic and ADP-glo methods, nonlinear regression analysis was used to determine the IC50 values from a dose-response curve generated using GraphPad Prism. Data are shown as mean±s.e.m. Determination of significance was performed by one-way ANOVA. All statistical analyses were performed using GraphPad Prism.

The target in another assay is Zeta (DGK zeta) (Homo sapiens, UniProt Q13574). Nature of the assay: DGK isoform % Activity screen. Conditions: for activity at 1000 µM: read-out: 1 mM % Activity, Zeta. Format: biochemical.
Chain of Zeta (DGK zeta) (Q13574 whole entry, canonical isoform): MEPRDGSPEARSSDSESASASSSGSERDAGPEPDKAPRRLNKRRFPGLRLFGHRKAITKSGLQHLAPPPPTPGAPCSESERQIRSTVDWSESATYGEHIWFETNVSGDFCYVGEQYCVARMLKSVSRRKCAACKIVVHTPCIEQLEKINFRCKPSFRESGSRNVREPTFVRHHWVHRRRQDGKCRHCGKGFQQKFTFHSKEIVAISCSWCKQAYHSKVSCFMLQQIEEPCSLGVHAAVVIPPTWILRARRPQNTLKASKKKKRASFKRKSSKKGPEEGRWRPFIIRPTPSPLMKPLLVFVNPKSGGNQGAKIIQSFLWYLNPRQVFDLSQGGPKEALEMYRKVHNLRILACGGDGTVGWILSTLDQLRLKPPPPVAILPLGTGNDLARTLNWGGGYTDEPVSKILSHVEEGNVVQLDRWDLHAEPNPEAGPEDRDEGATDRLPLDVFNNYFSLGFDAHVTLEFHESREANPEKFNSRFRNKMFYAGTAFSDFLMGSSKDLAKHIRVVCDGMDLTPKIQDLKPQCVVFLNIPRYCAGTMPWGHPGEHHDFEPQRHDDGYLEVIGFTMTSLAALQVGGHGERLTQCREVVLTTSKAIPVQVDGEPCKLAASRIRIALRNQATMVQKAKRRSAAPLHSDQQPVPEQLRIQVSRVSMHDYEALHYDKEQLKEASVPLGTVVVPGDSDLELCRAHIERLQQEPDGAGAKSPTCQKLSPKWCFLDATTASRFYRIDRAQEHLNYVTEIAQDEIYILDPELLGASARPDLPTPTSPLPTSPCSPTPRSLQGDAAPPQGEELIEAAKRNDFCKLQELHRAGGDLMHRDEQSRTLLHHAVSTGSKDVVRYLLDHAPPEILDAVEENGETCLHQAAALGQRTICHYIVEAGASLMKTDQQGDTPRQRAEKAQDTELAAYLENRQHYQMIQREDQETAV
For assay [1], the target named is Alpha (DGK alpha; only in reference sheet cells) (Rattus norvegicus, UniProt P51556). Nature of the assay: DGK isoform % Activity screen. Conditions: for activity at 100 µM: read-out: 100 uM % Activity (section without isoform head; Alpha); for activity at 1000 µM: read-out: 1 mM % Activity (section without isoform head; Alpha). Format: biochemical.
Chain of Alpha (DGK alpha; only in reference sheet cells) (P51556 whole entry, canonical isoform): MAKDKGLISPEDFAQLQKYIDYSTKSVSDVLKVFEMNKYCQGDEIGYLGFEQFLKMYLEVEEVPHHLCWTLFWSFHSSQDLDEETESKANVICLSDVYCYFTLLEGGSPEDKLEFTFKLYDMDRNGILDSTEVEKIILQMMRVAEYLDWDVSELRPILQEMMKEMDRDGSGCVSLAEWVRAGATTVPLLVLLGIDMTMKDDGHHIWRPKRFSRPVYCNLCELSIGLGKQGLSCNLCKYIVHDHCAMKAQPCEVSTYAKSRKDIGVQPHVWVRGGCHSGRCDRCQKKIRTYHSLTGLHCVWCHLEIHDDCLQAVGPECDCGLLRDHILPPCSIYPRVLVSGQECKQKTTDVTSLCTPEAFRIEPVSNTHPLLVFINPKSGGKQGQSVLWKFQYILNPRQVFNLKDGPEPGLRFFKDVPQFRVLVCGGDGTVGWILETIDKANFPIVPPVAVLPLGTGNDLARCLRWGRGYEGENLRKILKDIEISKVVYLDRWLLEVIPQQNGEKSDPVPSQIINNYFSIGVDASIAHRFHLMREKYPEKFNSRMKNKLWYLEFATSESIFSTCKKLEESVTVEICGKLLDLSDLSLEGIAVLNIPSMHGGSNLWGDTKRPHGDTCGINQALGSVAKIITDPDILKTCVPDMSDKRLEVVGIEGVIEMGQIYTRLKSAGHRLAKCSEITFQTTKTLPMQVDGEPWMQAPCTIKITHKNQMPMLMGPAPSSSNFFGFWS
In the next assay the target is Gamma (DGK gamma) (Homo sapiens, UniProt P49619). Kind of assay: DGK isoform % Activity screen. The note with it: for activity at 1000 µM: read-out: 1 mM % Activity, Gamma. It is filed as biochemical.
Chain of Gamma (DGK gamma) (P49619 whole entry, canonical isoform): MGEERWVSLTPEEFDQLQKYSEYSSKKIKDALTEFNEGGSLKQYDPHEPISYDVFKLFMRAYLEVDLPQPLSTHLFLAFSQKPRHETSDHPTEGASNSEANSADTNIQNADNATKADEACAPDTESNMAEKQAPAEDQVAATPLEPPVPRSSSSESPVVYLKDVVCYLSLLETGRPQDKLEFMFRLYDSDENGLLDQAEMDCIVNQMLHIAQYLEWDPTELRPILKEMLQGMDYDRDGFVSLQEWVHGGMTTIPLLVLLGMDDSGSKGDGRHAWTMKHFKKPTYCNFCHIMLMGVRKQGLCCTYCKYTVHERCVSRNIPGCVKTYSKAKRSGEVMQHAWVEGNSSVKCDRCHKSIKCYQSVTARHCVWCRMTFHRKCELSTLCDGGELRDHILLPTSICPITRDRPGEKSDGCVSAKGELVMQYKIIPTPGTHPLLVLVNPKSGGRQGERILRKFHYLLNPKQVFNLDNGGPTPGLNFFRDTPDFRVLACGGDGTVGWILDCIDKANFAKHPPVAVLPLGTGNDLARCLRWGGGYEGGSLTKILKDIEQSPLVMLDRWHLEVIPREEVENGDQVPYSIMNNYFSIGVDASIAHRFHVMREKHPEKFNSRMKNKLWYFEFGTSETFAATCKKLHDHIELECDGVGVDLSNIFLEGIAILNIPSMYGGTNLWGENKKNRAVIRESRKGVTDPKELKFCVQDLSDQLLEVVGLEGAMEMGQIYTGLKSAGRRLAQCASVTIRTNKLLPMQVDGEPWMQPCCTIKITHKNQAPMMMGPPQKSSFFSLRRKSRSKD

T1 sequence (P51556 whole entry): as the sequence (P51556 whole entry, canonical isoform) above

For the molecule `Cc1nc2sccn2c(=O)c1CCN1CCC(=C(c2ccccc2)c2ccc(F)cc2)CC1` [R59022], the “blockade of DGKα ATP probe labeling” value at recombinant DGKα was “blocked DGKα probe labeling”.

On to `O=c1c2ccccc2[nH]c(=S)n1CCN1CCC(=C(c2ccc(F)cc2)c2ccc(F)cc2)CC1` [R59949], for which the “blockade of DGKα ATP probe labeling” value on recombinant DGKα is “blocked DGKα probe labeling”.

With `Fc1ccc(C(c2ccc(F)cc2)N2CCNCC2)cc1` [TH001], the activity at 100 µM on Zeta (DGK zeta) turned out to be 102%; in assay [1], 72%; at Gamma (DGK gamma), 99%. Besides, the activity at 1000 µM (at Zeta (DGK zeta); in assay [1]; at Gamma (DGK gamma)) was 0% throughout.

Consider `c1ccc2c(c1)-c1ccccc1C2N1CCNCC1` [TH002], for which, at Zeta (DGK zeta), the activity at 100 µM amounted to 98% and the activity at 1000 µM came out at 0%. Also, in assay [1], the activity at 100 µM turned out to be 84% and the activity at 1000 µM is 0%.

For `CN1C2CCC1CC(OC(c1ccccc1)c1ccccc1)C2` (stereo not drawn) [TH004], at Zeta (DGK zeta), the activity at 100 µM came out at 82% and the activity at 1000 µM turned out to be 21%.

Take `CN(C)CCOc1ccc(/C(=C(/CCCl)c2ccccc2)c2ccccc2)cc1` [TH005]: at Zeta (DGK zeta), the activity at 100 µM stood at 86% and the activity at 1000 µM was 0%. In addition, in assay [1], the activity at 100 µM turned out to be 103% and the activity at 1000 µM was 14%.

As to `Fc1ccc(C(c2ccc(F)cc2)C2CCNCC2)cc1` [TH010], the activity at 100 µM on Zeta (DGK zeta) amounted to 96%. Also, the activity at 1000 µM at Zeta (DGK zeta) stood at 30%; in assay [1] it was 64%.

Turning to `c1ccc(C(=C2CCNCC2)c2ccccc2)cc1` [TH011], the activity at 100 µM on Zeta (DGK zeta) was 96%; in assay [1], 78%. Further, the activity at 1000 µM (on Zeta (DGK zeta); in assay [1]) was 0% throughout.

Regarding `c1ccc(C(c2ccccc2)C2CCNCC2)cc1` [TH012], on Zeta (DGK zeta), the activity at 100 µM came to 99% and the activity at 1000 µM amounted to 15%. Besides, the activity at 1000 µM in assay [1] turned out to be 41%.

On to `Fc1ccc(C(=C2CCCN(Cc3ccccc3)C2)c2ccc(F)cc2)cc1` [TH014], for which the activity at 100 µM on Zeta (DGK zeta) came out at 140%. Moreover, the activity at 1000 µM amounted to 327% on Zeta (DGK zeta) and 160% in assay [1].

As to `CC(=O)N1CCN(C(c2ccc(F)cc2)c2ccc(F)cc2)CC1` [TH016], on Zeta (DGK zeta), the activity at 100 µM came to 98% and the activity at 1000 µM came to 108%. Moreover, in assay [1], the activity at 1000 µM turned out to be 139%.

Take `Cc1ccc(C(=C2CCNCC2)c2ccc(C)cc2)cc1` [TH019]: the values for the activity at 100 µM (on Zeta (DGK zeta); in assay [1]) were 103% and 92%, respectively. For the same molecule, the activity at 1000 µM on Zeta (DGK zeta) was 0%; in assay [1], 1%.

On to `Fc1ccc(C(c2ccc(F)cc2)N2CCN(Cc3ccc4ccccc4n3)CC2)cc1` [TH022], for which the activity at 100 µM was determined as 135% at Zeta (DGK zeta) and 103% in assay [1]. Also, the results for the activity at 1000 µM (at Zeta (DGK zeta); in assay [1]) were 193% and 60%, respectively.

As to `Fc1ccc(C(c2ccc(F)cc2)N2CCN(C3CCNCC3)CC2)cc1` [TH024], the activity at 100 µM at Zeta (DGK zeta) is 72%; in assay [1] it was 84%. In addition, the activity at 1000 µM at Zeta (DGK zeta) amounted to 0%; in assay [1] it was 3%.

Regarding `COc1ccc(C(=C2CCNCC2)c2ccc(OC)cc2)cc1` [TH025], at Zeta (DGK zeta), the activity at 100 µM stood at 103% and the activity at 1000 µM is 0%. Moreover, in assay [1], the activity at 100 µM came out at 79% and the activity at 1000 µM is 4.4%.

With `OC(c1ccc(F)cc1)(c1ccc(F)cc1)C1CCNCC1` [TH028], on Zeta (DGK zeta), the activity at 100 µM amounted to 125% and the activity at 1000 µM was 0%. In addition, in assay [1], the activity at 100 µM worked out at 96% and the activity at 1000 µM was 0%.

Consider `Fc1ccc(C(=C2CCN(Cc3ccc4ccccc4n3)CC2)c2ccc(F)cc2)cc1` [TH029], for which, at Zeta (DGK zeta), the activity at 100 µM was found to be 169% and the activity at 1000 µM is 252%. In addition, in assay [1], the activity at 100 µM was 125% and the activity at 1000 µM is 73%.

As for `OCCN1CCN(C(c2ccc(F)cc2)c2ccc(F)cc2)CC1` [TH030], on Zeta (DGK zeta), the activity at 100 µM is 91% and the activity at 1000 µM stood at 5%. In assay [1], the activity at 100 µM amounted to 103% and the activity at 1000 µM stood at 36%.

For the molecule `OCCCN1CCN(C(c2ccc(F)cc2)c2ccc(F)cc2)CC1` [TH031], at Zeta (DGK zeta), the activity at 100 µM was found to be 105% and the activity at 1000 µM turned out to be 0%. Besides, in assay [1], the activity at 100 µM stood at 107% and the activity at 1000 µM was 26%.

In the case of `Fc1ccc(C(c2ccc(F)cc2)N2CCN(CCCN3CCCC3)CC2)cc1` [TH032], the activity at 100 µM at Zeta (DGK zeta) was 80%; in assay [1], 94%. The activity at 1000 µM on Zeta (DGK zeta) turned out to be 0%; in assay [1] it was 8%.

As to `Fc1ccc(C(c2ccc(F)cc2)N2CCN(CCCN3CCN(C(c4ccc(F)cc4)c4ccc(F)cc4)CC3)CC2)cc1` [TH033], the activity at 100 µM on Zeta (DGK zeta) came out at 82%; in assay [1] it was 72%. Moreover, in assay [1], the activity at 1000 µM was 4%.

Turning to `CS(=O)(=O)N1CCC(=C(c2ccc(F)cc2)c2ccc(F)cc2)CC1` [TH035], at Zeta (DGK zeta), the activity at 100 µM came out at 112% and the activity at 1000 µM turned out to be 100%. Also, in assay [1], the activity at 100 µM was determined as 88% and the activity at 1000 µM worked out at 40%.

For the molecule `CS(=O)(=O)N1CCN(C(c2ccc(F)cc2)c2ccc(F)cc2)CC1` [TH036], the figures for the activity at 100 µM (at Zeta (DGK zeta); in assay [1]) were 108% and 93%, respectively. Moreover, the activity at 1000 µM is 105% at Zeta (DGK zeta) and 74% in assay [1].

Consider `OC(c1ccc(C(F)(F)F)cc1)(c1ccc(C(F)(F)F)cc1)C1CCNCC1` [TH039], for which the activity at 100 µM worked out at 94% on Zeta (DGK zeta), 81% in assay [1] and 91% on Gamma (DGK gamma). Moreover, the activity at 1000 µM at Zeta (DGK zeta) worked out at 1%; in assay [1], 6%; at Gamma (DGK gamma) it was 1%.

For the molecule `Clc1ccc(C(=C2CCNCC2)c2ccc(Cl)cc2)cc1` [TH040], the activity at 100 µM at Zeta (DGK zeta) turned out to be 85%; in assay [1] it was 78%; at Gamma (DGK gamma), 101%. The activity at 1000 µM is 0% on Zeta (DGK zeta), 4% in assay [1] and 5% on Gamma (DGK gamma).

The values are drawn from patent US12643867B2, “Compositions and uses thereof” (University of Virginia Patent Foundation, priority 2017, dated 2026).
